Source: patent US20090264477A1, “BETA ADRENERGIC RECEPTOR AGONISTS FOR TREATMENT OF PAIN AND/OR INFLAMMATION” (Warsaw Orthopedic, Inc., An Indiana Corporation, priority 2008, published 2009)

Experiments:
[1] = test system: rat Chronic Constriction Injury model (Bennett Model); assay: Hargreaves test (thermal paw withdrawal latency, thermal hyperalgesia) in rat Chronic Constriction Injury model; format: in vivo, Wistar rats
From the text: The inventors evaluated the efficacy of a various beta-2-adrenergic receptor agonists and compared them to clonidine (an alpha-2-agonist) and saline in the rat Chronic Constriction Injury model (i.e., Bennett Model) using Wistar rats. The purpose: To determine whether the beta-2-adrenergic receptor agonists can improve pain associated behavioral responses in a rat model of neuropathic pain.
The doses given would mimic those achievable by a continuous release drug depot containing a biodegradable polymer (7 rats in each group).

[2] = test system: rat Chronic Constriction Injury model (Bennett Model); assay: von Frey test (mechanical threshold, mechanical allodynia) in rat Chronic Constriction Injury model; format: in vivo, Wistar rats
Procedure: The inventors evaluated the efficacy of a various beta-2-adrenergic receptor agonists and compared them to clonidine (an alpha-2-agonist) and saline in the rat Chronic Constriction Injury model (i.e., Bennett Model) using Wistar rats.
Hargreaves tests were conducted on days 7 and 14; […], where some drug compositions having predominantly beta-2 agonist activity were compared to clonidine a drug composition that has predominantly alpha-2 agonist activity and saline. The doses given would mimic those achievable by a continuous release drug depot containing a biodegradable polymer (7 rats in each group). […]
FIG. 4 is a graphic representation of the mechanical threshold as a percentage from baseline in rats given clonidine 0.02 mg/kg, ritodrine 5 mg/kg, ritodrine 2 mg/kg, salbutamol 10 mg/kg, salbutamol 5 mg/kg, terbutaline 0.5 mg/kg, terbutaline 0.1 mg/kg, and saline subcutaneously every day for 15 days. […]

[3] = 5 mg/kg subcutaneous every day for 15 days, day 14

Clc1cccc(Cl)c1N=C1NCCN1 [clonidine, 2,6-dichloro-N-2-imidazolidinyldenebenzenamine]
pain behavioral response for thermal hyperalgesia (thermal paw withdrawal latency, percentage of baseline) compared with saline group ([1]; 0.02 mg/kg subcutaneous every day for 15 days, day 14): statistically significant result of decreasing pain responses

CC(NCCc1ccc(O)cc1)C(O)c1ccc(O)cc1 (centres unmarked) [ritodrine]
pain behavioral response for mechanical allodynia (mechanical threshold, percentage of baseline) compared with saline group [2, 3]: statistically significant result of decreasing pain responses | pain behavioral response for thermal hyperalgesia (thermal paw withdrawal latency, percentage of baseline) compared with saline group ([1]; 2 mg/kg subcutaneous every day for 15 days, day 7): statistically significant result of decreasing pain responses | pain behavioral response for thermal hyperalgesia (thermal paw withdrawal latency, percentage of baseline) compared with saline group [1, 3]: statistically significant result of decreasing pain responses

CC(C)(C)NCC(O)c1ccc(O)c(CO)c1 (centres unmarked) [salbutamol]
pain behavioral response for mechanical allodynia (mechanical threshold, percentage of baseline) compared with saline group [2, 3]: statistically significant result of decreasing pain responses | pain behavioral response for mechanical allodynia (mechanical threshold, percentage of baseline) compared with saline group ([2]; 10 mg/kg subcutaneous every day for 15 days, days 8 and 15): statistically significant result of decreasing pain responses | pain behavioral response for thermal hyperalgesia (thermal paw withdrawal latency, percentage of baseline) compared with saline group ([1]; 5 mg/kg subcutaneous every day for 15 days, days 7 and 14): statistically significant result of decreasing pain responses | pain behavioral response for thermal hyperalgesia (thermal paw withdrawal latency, percentage of baseline) compared with saline group ([1]; 10 mg/kg subcutaneous every day for 15 days, days 7 and 14): statistically significant result of decreasing pain responses

CC(C)(C)NCC(O)c1cc(O)cc(O)c1 (centres unmarked) [terbutaline]
pain behavioral response for mechanical allodynia (mechanical threshold, percentage of baseline) compared with saline group ([2]; 0.5 mg/kg subcutaneous every day for 15 days, day 14): statistically significant result of decreasing pain responses | pain behavioral response for thermal hyperalgesia (thermal paw withdrawal latency, percentage of baseline) compared with saline group ([1]; 0.1 mg/kg subcutaneous every day for 15 days, days 7 and 14): statistically significant result of decreasing pain responses | pain behavioral response for thermal hyperalgesia (thermal paw withdrawal latency, percentage of baseline) compared with saline group ([1]; 0.5 mg/kg subcutaneous every day for 15 days, days 7 and 14): statistically significant result of decreasing pain responses
